The source of these data is patent US10017463B2, “Inhibitors of deubiquitinating proteases” (Brandeis University, priority 2014, dated 2018).

By EC50 is commonly meant the concentration needed to bring the measured effect to its halfway point.

The structures appear in SMILES notation. Like-named read-outs stand apart in the source and are kept apart here.

Test [1] concerns the target T1, USP9x (Homo sapiens, UniProt Q93008).
T1 construct: Lysate labeling assay on untransfected cells; endogenous in cells; host or cells: K562
Briefly: HA-Ubiquitin-Vinylsulfone activity profiling in K562 lysates. It counts as biochemical. How it is done:
Panel B is an image of an immunoblot showing the titration of TCM23 and TCM28 in K562 lysates. Panel C is a plot showing the quantitation of band corresponding to USP9x in panel B. Panel D is an image of an immunoblot showing the titration of WP1130 in K562 lysates. Panel E is a plot showing the quantification of the efficacy of ITCs for the inhibition of USP9x in K562 lysates (see also Table 2).
[…] After this time HA-Ub-VS (1.5 μM) was added and incubated for 15 min. After this time reaction mixture (15 μL) was removed and quenched in 2× (final concentration) reducing Laemeli buffer. The reaction mixtures were heated to 37° C. for 10 min prior to analysis by western blot for HA.

Test [2] concerns DUBs other than USP9x, most notably UCHL5. Briefly: HA-Ubiquitin-Vinylsulfone activity profiling, other DUBs. It counts as biochemical. As to conditions: for inhibition of other DUBs other than USP9x: at 85 μM; for inhibition of other DUBs: below 25 μM. The protocol:
Lysate labeling assay on untransfected cells (1.5 mg/mL lysate lysed using a Dounce homogenizer, 10 strokes, in 75 mM potassium phosphate pH 7.6, 150 mM NaCl, 0.75 mM BME) was run with the stated concentration of inhibitor (or 1% DMSO control) for 30 min. After this time HA-Ub-VS (1.5 μM) was added and incubated for 15 min. After this time reaction mixture (15 μL) was removed and quenched in 2× (final concentration) reducing Laemeli buffer. The reaction mixtures were heated to 37° C. for 10 min prior to analysis by western blot for HA. […] EC50s calculated by this method were in agreement with those found in the HA-blot.

Test [3] concerns the target purified recombinant USP9x (Homo sapiens, UniProt Q93008). Briefly: Purified recombinant USP9x, Cy5-Ub-VME activity profiling. It counts as biochemical. The conditions noted are these: for inhibition of USP9x in presence of USP7CD: at 12.5 μM; for fluorescent signal of USP9x-(Cy5-Ub-VME) complex: preincubation at 50 or 25 μM. The protocol: (§1) Panel A is an image showing that purified recombinant USP9x (7 nM) was treated with the stated compound at 50 μM for 19 min prior to addition of Cy5-Ub-VME for 5 min, then the mixture was resolved by S.D.S-PAGE and analyzed on a typhoon imager. Panel B is an image of an immunoblot showing purified recombinant USP9x (7 nM) and USP7CD (20 nM) were treated with the stated compound at the stated concentration for 19 min prior to addition of Cy5-Ub-VME for 5 min then the mixture was resolved by S.D.S-PAGE and analyzed on a Typhoon imager.

Test [4] deals with T2, USP7 catalytic domain (USP7CD) (Homo sapiens, UniProt Q93009).
T2 construct: USP7 catalytic domain (USP7CD)
Put plainly: USP7 catalytic domain, Cy5-Ub-VME activity profiling. It counts as biochemical. As to conditions: at 12.5 μM. The protocol: as §1
In addition, the amount of free inhibitor is unknown and thus the true kon could be much higher.

In test [5] the test system is K562 cells. Briefly: Annexin V-FITC/PI apoptosis assay, K562. Format: cell-based. As to conditions: 15 or 30 μM, 24 h. The protocol: (each point is shown as mean+/−s.d. of 2 replicates). Panel A is a bar graph showing the data for HeLa cells (30 μM); Panel B is a bar graph showing the data for K562 (30 μM); Panel C is a bar graph showing the data for K562 (15 μM).
Since K562 cells are dependent upon Bcr-Abl for survival, it was predicted that these cells would also be susceptible to TU compounds. However, K562 cells gave a very weak signal in the Alamar Blue® assay. In lieu of the Alamar Blue assay, an apoptosis assay was used to show susceptibility. This assay uses fluorescein-modified Annexin V to detect phosphatidyl serine (PS) on the cell surface. See Vermes et al., J. Immon. Meth. 184, 39-51 (1995). PS is typically expressed on the inner leaflet of the cell membrane. However in the early stages of apoptosis, PS translocates to the outer leaflet and can be bound by Annexin V. Thus, during apoptosis cells will become greener in the presence of Annexin V-Fluorescine.

Test [6] has as its target T3, recombinant human 20S proteasome (Homo sapiens, UniProt P28074).
T3 construct: purchased Boston Biochem
Briefly: 20S proteasome assay (Suc-Leu-Leu-Val-Tyr-AMC). Format: biochemical. The conditions noted are these: 50 μM for the TU compounds (FIG. 6D). How it is done: To recombinant human 20S proteasome ([…]) in 50 mM potassium phosphate pH 7.6, 50 mM NaCl, 1 mM DTT was added the compound or DMSO. This mixture was incubated at 25° C. for 30 min after which time substrate (Suc-Leu-Leu-Val-Tyr-AMC, 100 μM or 17 μM) was added and release of AMC was measured as a function of time using a plate reader for 30 min. The steady state rates were calculated and normalized to the DMSO rate. The concentration of inhibitor required to inhibit the enzyme by 50% was calculated using prism.

Test [7] concerns DUBs. Briefly: Cy5-Ub-VME activity profiling of treated BaF3/p210 cells. Format: cell-based, murine. As to conditions: 50 μM, 4 h. How it is done: FIG. 9 has two panels (A and B) depicting data showing that TUs inhibit DUBs in cells. BaF3/p210 cells were incubated with the stated concentration of compound for 4 h. After this time cells were lysed using beads, lysates were normalized, then exposed to Cy5-Ub-VME for 5 min. After quenching, lysates were resolved by SDS-PAGE, analyzed on typhoon, then stained by Coomassie. Panel A is an image of the SDS-PAGE gel visualized via Typhoon imager. Panel B is an image of the SDS PAGE gel stained with Coomassie.
Panel A is the chemical structure of TU71. Panel B is an image of an immunoblot showing a K562 cell was treated with TU71 for 15 min at which time HAUb-VS was added. After an additional 15 min, aliquots were quenched in reducing loading buffer and analyzed by SDS-PAGE and HA blot. […] BaF3/p21 0 cells were treated with TU71 for 2.5 h (Panel C) or 4 h (Panel D). Cells were harvested, lysed and incubated (0.7 mg/mL protein) with 250 nM Cy5-UbVME for 5 min at 37° C. […] Panel E is an image of an immunoblot showing BaF3/p210 cells were incubated with TU71 for 4 h. The cells were harvested, lysed, analyzed by SDS-PAGE and immunoblotted as indicated. “cPARP” indicates the caspase cleavage of product of PARP and is indicative of apoptosis. Panel F is a bar graph showing data representative of mean±range of two independent experiments, one performed in duplicate of the blot depicted in Panel E.
The increased promiscuity of the inhibitors when the experiment is carried out in cells likely stems from the increased assay time (4 h vs 20 min) coupled with the slow on rates of the inhibitors and their targets.

Test [8] relates to BaF3 parent. Briefly: Growth inhibition assay, BaF3 parent. Format: cell-based. As to conditions: at higher concentrations than BaF3/p210. The source says: MCL1 is required to sustain growth of many transformed cells and is also regulated by USP9x. […] These findings help to explain why these compounds are toxic to Bcr-Abl independent cancer lines, especially BaF3.
The mark [9] stands for this setting: HA-Ub-VS profiling, values in text, read-out: EC50 for USP9x.
The mark [10] stands for this setting: inhibition of USP9x in K562 lysates, data from FIG. 1, read-out: EC50.

T2 sequence (Q93009 214-521 limits assumed, species assumed): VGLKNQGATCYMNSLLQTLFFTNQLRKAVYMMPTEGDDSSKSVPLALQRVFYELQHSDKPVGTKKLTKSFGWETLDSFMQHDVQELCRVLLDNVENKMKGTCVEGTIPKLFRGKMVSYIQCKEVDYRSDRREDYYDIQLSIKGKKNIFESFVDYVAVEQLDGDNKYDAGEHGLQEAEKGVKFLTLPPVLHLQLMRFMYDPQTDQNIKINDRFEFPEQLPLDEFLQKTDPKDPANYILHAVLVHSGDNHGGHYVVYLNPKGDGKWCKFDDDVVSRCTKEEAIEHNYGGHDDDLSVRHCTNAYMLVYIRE
purified recombinant USP9x, sequence (Q93008 whole entry, species assumed): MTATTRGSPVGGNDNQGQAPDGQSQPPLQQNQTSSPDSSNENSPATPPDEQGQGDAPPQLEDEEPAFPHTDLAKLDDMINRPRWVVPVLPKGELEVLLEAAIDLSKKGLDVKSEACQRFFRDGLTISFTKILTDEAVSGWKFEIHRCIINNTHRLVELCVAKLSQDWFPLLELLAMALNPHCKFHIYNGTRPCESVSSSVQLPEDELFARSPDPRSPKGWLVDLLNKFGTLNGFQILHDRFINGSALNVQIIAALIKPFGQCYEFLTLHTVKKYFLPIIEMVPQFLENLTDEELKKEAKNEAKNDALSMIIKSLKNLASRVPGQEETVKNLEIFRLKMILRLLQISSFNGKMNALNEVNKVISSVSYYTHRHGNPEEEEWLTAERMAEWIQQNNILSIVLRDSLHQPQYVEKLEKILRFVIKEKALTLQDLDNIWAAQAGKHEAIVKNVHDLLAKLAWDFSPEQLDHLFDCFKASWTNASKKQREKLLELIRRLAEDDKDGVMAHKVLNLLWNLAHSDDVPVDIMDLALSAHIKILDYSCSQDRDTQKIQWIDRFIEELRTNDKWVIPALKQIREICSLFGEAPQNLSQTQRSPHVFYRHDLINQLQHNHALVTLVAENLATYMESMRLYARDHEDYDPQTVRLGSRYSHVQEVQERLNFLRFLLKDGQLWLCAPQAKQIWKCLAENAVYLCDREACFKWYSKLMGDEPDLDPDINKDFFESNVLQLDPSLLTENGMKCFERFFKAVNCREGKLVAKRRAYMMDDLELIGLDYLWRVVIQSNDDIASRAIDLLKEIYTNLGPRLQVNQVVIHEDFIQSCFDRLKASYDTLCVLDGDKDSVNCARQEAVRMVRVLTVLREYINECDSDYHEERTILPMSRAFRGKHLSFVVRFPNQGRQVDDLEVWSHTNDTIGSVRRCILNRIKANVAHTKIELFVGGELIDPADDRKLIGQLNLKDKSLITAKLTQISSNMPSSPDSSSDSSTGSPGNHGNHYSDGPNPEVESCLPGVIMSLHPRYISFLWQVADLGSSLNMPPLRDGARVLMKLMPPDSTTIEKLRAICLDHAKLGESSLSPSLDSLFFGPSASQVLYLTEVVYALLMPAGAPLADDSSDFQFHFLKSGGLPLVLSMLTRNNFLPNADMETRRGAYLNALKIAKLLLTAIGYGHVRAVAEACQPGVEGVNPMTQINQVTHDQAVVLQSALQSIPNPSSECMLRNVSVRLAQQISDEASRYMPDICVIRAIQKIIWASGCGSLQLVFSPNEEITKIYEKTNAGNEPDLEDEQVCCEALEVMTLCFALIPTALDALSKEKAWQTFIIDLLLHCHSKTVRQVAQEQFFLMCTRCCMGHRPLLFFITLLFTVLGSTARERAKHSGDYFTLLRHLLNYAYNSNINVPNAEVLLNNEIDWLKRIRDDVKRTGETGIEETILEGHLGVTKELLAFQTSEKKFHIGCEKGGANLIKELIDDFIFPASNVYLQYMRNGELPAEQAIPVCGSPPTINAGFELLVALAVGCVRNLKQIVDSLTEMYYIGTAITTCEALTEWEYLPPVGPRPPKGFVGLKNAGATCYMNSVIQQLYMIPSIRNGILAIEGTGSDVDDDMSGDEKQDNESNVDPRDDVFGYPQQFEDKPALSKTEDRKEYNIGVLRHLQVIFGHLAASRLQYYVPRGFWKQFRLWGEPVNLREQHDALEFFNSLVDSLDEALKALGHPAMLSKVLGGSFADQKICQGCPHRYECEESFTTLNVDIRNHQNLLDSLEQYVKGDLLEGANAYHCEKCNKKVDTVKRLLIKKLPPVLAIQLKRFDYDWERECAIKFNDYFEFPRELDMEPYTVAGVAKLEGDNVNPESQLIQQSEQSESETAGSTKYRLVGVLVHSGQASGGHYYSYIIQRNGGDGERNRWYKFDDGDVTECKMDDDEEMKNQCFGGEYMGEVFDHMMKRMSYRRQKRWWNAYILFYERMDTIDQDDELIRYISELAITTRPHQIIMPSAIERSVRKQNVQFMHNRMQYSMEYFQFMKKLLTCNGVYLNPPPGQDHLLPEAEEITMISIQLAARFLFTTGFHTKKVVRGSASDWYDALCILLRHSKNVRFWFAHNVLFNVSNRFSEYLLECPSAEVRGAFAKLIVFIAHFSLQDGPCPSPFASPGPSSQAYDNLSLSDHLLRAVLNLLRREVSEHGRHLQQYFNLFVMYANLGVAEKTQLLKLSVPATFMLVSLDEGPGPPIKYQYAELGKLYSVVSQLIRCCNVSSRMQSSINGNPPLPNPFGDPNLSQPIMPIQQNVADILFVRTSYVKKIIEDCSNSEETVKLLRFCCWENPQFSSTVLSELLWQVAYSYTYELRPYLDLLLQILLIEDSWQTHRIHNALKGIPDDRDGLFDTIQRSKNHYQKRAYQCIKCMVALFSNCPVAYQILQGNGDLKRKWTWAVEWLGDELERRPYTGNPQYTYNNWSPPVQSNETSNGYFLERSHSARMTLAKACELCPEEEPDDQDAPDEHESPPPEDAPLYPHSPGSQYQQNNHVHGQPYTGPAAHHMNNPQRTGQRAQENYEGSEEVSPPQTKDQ
T1 sequence (Q93008 whole entry): as the sequence (Q93008 whole entry, species assumed) above

Consider `CC(C)(C)OC(=O)NCCc1ccc(N=C=S)cc1` [TU46], for which, in test [1], the “inhibition of USP9x” value was “significant inhibition”. Moreover, the EC50 in test [1] (setting [9]) was in the range of 6 to 12 µM. In addition, the EC50 in test [1] (setting [10]) turned out to be 12 µM. Besides, in test [2], the “inhibition of other DUBs other than USP9x” value was “weak inhibition” and the “inhibition of other DUBs” value is recorded as “little inhibition”. Besides, in test [3], the “inhibition of USP9x in presence of USP7CD” value is given as “strongly inhibited” and the “fluorescent signal of USP9x-(Cy5-Ub-VME) complex” value is listed as “oblation of the fluorescent signal”. For the same compound, in test [4], the “inhibition of USP7CD” value was “little inhibition”. Also, the “apoptosis and necrosis in K562” value in test [5] was “large increase in both apoptosis and necrosis”. For the same compound, in test [6], the “inhibition of pure 20S proteasome” value is given as “did not inhibit”. The “Cy5-Ub-VME labelled bands after treatment of cells” value (shortened to “Cy5-Ub-VME labelled bands”) in test [7] is reported as “decrease in a number of bands in addition to the band corresponding to USP9x”. Further, the “susceptibility of BaF3 parent (growth inhibition)” value in test [8] is “susceptible”.
Turning to `O=C(NCc1ccc(N=C=S)cc1)OCc1ccccc1` [TU49], in test [2], the “inhibition of other DUBs other than USP9x” value is listed as “weak inhibition” and the “inhibition of other DUBs” value was “little inhibition”. In test [4], the “inhibition of USP7CD” value is “little inhibition”. The “apoptosis and necrosis in K562” value in test [5] was “large increase in both apoptosis and necrosis”. Further, the “inhibition of pure 20S proteasome” value in test [6] is “did not inhibit”. Also, the “Cy5-Ub-VME labelled bands” value in test [7] is “decrease in a number of bands in addition to the band corresponding to USP9x”.
With `CC(C)(C)OC(=O)NCc1cccc(N=C=S)c1` [TU50], the “inhibition of USP9x” value in test [1] is on record as “significant inhibition”. Besides, the EC50 in test [1] (setting [9]) fell in the range of 6 to 12 µM. Besides, the EC50 in test [1] (setting [10]) was 9 µM. Further, in test [2], the “inhibition of other DUBs other than USP9x” value is “weak inhibition” and the “inhibition of other DUBs” value is “little inhibition”. Besides, in test [3], the “inhibition of USP9x in presence of USP7CD” value is listed as “strongly inhibited” and the “fluorescent signal of USP9x-(Cy5-Ub-VME) complex” value is “oblation of the fluorescent signal”. The “inhibition of USP7CD” value in test [4] is on record as “little inhibition”. The “apoptosis and necrosis in K562” value in test [5] was “large increase in both apoptosis and necrosis”. For the same compound, the “inhibition of pure 20S proteasome” value in test [6] is listed as “did not inhibit”. In test [7], the “Cy5-Ub-VME labelled bands” value was “decrease in a number of bands in addition to the band corresponding to USP9x”. In addition, in test [8], the “susceptibility of BaF3 parent (growth inhibition)” value is recorded as “susceptible”.
